In patent US10870647B2, “Imidazopyridine derivative, method for preparing same, and pharmaceutical composition containing same as active ingredient for preventing or treating cancer” (DAEGU-GYEONGBUK MEDICAL INNOVATION FOUNDATION, priority 2016, dated 2020) one finds remaining binding data, which are given here for three molecules.

Common to all, as to experiment: Kinase selectivity, scanMAX Kinase assay panel (DiscoverX), % control at 1 uM
What all share (type): binding

Test [1] concerns the target T1, scanMAX Kinase assay panel (Homo sapiens, UniProt P54646).
T1 construct: purchased DiscoverX
As to conditions: AMPK-alpha2; 1 uM; read-out: Percent Control (%). Put shortly:
(§1)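 Binding across the scanMAX kinase panel was tested at 1 uM compound. % control = (compound − positive control)/(negative control − positive control) × 100; below 35 counted as active.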

In test [2] the target is T2, scanMAX Kinase assay panel (Homo sapiens, UniProt P54762).
T2 construct: purchased DiscoverX
T2 sequence (P54762 18-984): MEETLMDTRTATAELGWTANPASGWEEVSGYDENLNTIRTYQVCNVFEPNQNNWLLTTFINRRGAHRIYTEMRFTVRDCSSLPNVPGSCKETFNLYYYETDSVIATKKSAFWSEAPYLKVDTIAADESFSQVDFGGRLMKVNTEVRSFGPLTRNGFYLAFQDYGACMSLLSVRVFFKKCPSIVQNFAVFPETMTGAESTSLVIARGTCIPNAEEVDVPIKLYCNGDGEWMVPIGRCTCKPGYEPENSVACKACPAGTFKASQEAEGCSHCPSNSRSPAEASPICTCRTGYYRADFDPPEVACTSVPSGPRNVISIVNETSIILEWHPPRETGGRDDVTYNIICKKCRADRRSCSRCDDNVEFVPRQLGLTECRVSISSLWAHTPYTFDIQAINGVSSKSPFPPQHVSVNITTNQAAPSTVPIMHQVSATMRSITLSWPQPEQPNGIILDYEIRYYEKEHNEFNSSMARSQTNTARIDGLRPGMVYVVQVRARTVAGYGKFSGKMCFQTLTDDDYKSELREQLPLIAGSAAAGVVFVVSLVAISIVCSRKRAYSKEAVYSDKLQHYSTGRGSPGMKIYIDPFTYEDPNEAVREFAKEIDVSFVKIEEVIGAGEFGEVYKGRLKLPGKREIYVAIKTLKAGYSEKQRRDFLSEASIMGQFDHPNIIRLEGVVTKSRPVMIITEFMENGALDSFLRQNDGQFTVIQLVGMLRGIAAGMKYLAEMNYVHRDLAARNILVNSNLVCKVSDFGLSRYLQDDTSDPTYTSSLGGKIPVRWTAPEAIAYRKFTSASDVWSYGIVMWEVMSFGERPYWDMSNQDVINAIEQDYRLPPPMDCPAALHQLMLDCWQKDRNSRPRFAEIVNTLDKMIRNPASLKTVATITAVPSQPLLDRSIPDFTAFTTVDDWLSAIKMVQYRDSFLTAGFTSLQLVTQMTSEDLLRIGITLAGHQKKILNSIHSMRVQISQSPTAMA
As to conditions: EPHB1; 1 uM; read-out: Percent Control (%). The procedure, abridged:
as §1

Test [3] has as its target T3, scanMAX Kinase assay panel (Homo sapiens, UniProt P54764).
T3 construct: purchased DiscoverX
As to conditions: EPHA4; 1 uM; read-out: Percent Control (%). The procedure, abridged: as §1

Test [4] concerns the target T4, scanMAX Kinase assay panel (Homo sapiens, UniProt Q12866).
T4 construct: purchased DiscoverX
T4 sequence (Q12866 21-999): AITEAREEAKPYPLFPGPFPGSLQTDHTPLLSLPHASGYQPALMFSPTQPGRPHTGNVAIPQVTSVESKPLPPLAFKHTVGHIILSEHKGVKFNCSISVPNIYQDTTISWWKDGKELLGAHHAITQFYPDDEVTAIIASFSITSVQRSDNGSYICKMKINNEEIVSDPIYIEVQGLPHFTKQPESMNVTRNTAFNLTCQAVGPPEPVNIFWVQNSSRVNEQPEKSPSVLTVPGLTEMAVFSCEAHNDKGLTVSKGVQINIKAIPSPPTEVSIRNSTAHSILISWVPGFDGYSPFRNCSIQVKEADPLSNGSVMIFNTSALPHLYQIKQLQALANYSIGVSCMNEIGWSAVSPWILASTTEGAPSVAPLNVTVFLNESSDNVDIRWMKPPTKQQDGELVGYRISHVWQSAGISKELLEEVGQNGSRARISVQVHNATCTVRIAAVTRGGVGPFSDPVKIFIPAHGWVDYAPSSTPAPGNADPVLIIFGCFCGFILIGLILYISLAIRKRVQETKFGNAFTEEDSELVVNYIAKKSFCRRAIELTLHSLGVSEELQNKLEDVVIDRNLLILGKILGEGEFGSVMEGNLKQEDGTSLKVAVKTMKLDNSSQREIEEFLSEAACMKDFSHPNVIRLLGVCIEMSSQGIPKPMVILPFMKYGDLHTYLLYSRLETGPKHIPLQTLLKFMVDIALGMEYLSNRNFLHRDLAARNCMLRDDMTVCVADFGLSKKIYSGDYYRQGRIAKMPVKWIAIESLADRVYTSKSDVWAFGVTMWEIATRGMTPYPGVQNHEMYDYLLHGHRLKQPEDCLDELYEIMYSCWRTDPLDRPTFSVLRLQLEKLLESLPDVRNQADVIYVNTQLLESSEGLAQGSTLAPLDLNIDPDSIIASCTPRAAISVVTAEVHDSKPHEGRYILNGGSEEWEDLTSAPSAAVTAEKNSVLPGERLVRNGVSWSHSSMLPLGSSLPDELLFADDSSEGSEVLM
As to conditions: MERTK; 1 uM; read-out: Percent Control (%). The procedure, abridged:
as §1

Test [5] addresses T5, scanMAX Kinase assay panel (Homo sapiens, UniProt Q13464).
T5 construct: purchased DiscoverX
The following applies: ROCK1; 1 uM; read-out: Percent Control (%). The procedure, abridged:
as §1

The target in test [6] is T6, scanMAX Kinase assay panel (Homo sapiens, UniProt Q16288).
T6 construct: purchased DiscoverX
As to conditions: TRKC; 1 uM; read-out: Percent Control (%). The procedure, abridged:
as §1

In test [7] the target is T7, scanMAX Kinase assay panel (Homo sapiens, UniProt Q16620).
T7 construct: purchased DiscoverX
The following applies: TRKB; 1 uM; read-out: Percent Control (%). Put shortly: as §1

The target in test [8] is T8, scanMAX Kinase assay panel (Homo sapiens, UniProt Q8NEV4).
T8 construct: purchased DiscoverX
The following applies: MYO3A; 1 uM; read-out: Percent Control (%). The procedure, abridged: as §1

The target in test [9] is T9, scanMAX Kinase assay panel (Homo sapiens, UniProt Q9H0K1).
T9 construct: purchased DiscoverX
The following applies: SIK2; 1 uM; read-out: Percent Control (%). The procedure, abridged: as §1

Test [10] deals with T10, scanMAX Kinase assay panel (Homo sapiens, UniProt Q9Y2H9).
T10 construct: purchased DiscoverX
The following applies: MAST1; 1 uM; read-out: Percent Control (%). The procedure, abridged:
as §1

T3 sequence (P54764 20-986): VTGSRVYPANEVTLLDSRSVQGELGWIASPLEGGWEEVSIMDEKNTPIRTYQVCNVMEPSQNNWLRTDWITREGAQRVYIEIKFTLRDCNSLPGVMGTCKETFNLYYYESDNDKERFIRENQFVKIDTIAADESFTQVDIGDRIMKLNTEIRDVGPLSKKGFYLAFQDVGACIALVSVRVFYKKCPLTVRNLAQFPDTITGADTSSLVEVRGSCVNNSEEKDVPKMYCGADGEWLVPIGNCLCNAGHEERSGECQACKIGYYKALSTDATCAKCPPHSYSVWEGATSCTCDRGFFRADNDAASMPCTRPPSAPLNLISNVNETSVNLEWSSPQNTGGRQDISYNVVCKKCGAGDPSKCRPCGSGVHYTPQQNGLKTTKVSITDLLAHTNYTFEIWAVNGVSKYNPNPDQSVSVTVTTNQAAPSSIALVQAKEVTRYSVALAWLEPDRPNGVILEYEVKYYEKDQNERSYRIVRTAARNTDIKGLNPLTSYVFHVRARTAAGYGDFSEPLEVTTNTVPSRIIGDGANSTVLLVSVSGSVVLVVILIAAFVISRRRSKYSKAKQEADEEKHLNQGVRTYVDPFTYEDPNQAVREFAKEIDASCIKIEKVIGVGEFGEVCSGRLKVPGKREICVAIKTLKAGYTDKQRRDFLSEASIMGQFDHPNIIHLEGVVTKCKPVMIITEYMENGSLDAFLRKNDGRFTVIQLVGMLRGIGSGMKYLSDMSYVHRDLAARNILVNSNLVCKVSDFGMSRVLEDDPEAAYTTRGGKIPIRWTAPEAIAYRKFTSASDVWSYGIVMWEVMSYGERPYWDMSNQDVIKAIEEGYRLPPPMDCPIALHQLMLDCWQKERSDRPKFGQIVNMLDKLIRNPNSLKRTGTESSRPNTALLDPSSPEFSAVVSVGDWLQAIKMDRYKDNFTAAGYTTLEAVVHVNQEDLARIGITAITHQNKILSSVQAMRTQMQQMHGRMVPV
T10 sequence (Q9Y2H9 whole entry): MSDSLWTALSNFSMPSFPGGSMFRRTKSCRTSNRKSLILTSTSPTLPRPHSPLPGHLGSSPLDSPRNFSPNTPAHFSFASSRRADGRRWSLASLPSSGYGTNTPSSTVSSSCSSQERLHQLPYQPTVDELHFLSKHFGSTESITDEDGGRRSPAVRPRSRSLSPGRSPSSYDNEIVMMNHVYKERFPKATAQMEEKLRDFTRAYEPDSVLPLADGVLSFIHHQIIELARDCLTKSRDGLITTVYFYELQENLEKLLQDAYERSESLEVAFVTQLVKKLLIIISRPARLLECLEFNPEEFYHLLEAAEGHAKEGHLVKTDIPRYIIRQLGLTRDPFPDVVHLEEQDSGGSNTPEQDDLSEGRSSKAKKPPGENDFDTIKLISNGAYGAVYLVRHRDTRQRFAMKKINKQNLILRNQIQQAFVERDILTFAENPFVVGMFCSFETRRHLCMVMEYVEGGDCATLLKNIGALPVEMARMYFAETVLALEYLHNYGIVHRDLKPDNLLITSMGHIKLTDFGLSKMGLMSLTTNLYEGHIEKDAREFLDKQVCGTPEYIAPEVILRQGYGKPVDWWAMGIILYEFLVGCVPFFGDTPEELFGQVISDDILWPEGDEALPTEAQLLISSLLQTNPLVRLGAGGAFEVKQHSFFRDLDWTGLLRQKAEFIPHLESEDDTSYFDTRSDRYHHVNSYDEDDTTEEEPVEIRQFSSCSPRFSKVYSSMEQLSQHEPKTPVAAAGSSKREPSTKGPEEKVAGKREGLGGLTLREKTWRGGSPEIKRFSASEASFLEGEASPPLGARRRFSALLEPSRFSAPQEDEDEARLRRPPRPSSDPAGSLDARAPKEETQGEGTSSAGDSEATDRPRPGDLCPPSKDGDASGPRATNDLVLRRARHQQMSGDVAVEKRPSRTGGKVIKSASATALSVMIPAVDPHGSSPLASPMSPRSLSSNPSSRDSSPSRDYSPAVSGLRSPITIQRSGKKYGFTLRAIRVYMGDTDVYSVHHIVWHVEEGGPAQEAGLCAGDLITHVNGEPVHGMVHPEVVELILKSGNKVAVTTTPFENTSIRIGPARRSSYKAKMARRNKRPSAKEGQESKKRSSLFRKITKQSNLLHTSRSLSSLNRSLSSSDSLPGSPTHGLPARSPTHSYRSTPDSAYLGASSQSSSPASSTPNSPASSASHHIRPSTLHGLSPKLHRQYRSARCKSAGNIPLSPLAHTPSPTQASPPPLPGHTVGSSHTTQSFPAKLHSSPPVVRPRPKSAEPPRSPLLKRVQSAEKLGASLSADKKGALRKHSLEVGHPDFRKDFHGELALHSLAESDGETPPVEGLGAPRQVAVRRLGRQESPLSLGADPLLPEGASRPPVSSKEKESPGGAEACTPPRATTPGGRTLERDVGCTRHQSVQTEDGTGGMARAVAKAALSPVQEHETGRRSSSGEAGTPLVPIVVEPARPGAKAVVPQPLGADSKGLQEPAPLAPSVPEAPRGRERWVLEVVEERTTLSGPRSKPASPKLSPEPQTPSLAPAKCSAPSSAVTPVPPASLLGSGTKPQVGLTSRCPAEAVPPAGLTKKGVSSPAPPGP
T5 sequence (Q13464 whole entry): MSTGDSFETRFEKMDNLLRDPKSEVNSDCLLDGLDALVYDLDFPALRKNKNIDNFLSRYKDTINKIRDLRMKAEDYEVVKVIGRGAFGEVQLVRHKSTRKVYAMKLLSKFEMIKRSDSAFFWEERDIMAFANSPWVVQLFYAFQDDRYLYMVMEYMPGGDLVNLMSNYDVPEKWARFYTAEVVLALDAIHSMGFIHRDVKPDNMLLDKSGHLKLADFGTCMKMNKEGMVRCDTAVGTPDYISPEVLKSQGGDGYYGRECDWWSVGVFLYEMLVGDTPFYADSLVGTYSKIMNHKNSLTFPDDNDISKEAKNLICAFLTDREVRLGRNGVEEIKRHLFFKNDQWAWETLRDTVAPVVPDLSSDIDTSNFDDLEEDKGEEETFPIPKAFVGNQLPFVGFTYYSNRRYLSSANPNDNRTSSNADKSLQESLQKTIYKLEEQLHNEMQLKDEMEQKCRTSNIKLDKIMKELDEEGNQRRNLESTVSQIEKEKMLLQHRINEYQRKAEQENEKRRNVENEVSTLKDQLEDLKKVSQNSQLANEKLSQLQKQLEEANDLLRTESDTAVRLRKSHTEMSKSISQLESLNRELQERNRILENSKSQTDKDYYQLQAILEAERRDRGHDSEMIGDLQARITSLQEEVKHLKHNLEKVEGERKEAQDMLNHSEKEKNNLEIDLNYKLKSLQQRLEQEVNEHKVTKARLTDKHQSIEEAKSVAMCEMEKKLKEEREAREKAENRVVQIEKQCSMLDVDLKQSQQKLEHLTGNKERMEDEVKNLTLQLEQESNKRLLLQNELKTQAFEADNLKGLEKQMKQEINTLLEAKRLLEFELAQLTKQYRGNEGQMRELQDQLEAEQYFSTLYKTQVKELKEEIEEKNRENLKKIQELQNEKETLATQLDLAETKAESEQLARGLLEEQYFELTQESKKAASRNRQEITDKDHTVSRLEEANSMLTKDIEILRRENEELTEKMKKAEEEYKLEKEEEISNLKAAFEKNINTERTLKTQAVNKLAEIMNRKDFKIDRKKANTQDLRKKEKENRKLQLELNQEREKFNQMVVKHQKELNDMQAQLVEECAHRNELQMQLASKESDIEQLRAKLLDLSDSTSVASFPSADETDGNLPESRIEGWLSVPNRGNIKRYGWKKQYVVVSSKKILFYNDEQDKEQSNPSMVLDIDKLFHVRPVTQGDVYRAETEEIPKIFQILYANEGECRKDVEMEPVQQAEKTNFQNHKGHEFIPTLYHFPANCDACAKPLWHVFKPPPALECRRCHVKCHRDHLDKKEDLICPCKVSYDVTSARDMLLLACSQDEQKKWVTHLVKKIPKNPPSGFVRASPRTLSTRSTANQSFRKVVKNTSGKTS
T9 sequence (Q9H0K1 whole entry): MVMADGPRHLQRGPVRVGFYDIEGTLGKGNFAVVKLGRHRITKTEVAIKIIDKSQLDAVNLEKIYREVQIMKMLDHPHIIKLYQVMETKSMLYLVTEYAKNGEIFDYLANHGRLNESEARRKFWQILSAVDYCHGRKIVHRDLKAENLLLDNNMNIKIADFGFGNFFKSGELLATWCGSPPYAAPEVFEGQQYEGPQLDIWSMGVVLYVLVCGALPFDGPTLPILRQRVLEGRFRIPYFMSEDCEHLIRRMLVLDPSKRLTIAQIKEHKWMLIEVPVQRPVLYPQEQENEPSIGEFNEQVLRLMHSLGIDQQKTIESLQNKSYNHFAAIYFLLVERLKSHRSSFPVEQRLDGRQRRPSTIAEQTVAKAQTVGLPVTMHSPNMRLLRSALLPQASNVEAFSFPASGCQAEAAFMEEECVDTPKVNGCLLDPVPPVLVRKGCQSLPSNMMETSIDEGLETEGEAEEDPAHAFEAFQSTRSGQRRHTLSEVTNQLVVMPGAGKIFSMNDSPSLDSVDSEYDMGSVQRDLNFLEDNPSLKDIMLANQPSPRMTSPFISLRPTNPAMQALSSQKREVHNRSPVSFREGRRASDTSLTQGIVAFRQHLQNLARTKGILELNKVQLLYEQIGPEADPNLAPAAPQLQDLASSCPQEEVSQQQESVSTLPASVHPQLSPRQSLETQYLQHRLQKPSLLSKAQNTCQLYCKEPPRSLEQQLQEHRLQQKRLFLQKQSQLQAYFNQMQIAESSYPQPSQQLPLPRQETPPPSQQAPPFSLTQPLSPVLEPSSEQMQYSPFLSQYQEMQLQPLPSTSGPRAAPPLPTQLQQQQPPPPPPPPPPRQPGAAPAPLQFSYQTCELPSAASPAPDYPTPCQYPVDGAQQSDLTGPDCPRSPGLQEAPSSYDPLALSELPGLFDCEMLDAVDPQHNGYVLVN

For the molecule `Cc1ccc(C(=O)Nc2ccc(CN3CCN(C)CC3)c(C(F)(F)F)c2)cc1C#Cc1cnc2c(Nc3cnn(C)c3)cccn12` [Example 1, 4-methyl-3-((8-((1-methyl-1H-pyrazol-4-yl)amino)imidazo[1,2-a]pyridin-3-yl)ethynyl)-N-(4-((4-methylpiperazin-1-yl)methyl)-3-(trifluoromethyl)phenyl)benzamide], the remaining binding at 1 µM in test [1] was 4%; in test [2], 0%; in test [3], 1%; in [4] it was 0%; in [5], 89%; in test [6], 0%. In addition, the remaining binding at 1 µM in test [7] came out at 0%; in [8], 14%; in test [9], 44%; in test [10], 81%.
As to `Cc1ccc(NC(=O)C2(C(=O)Nc3ccc(F)cc3)CC2)cc1C#Cc1cnc2c(Nc3cnn(C(C)C)c3)cccn12` [Example 78], the remaining binding at 1 µM was found to be 100% in test [1]; 90% in [2]; 91% in test [3]; 100% in [4]; 100% in test [5]; 96% in test [6]. The remaining binding at 1 µM was determined as 89% in test [7], 100% in test [8], 53% in [9] and 82% in test [10].
Consider `Cc1cn(-c2cc(NC(=O)c3ccc(C)c(C#Cc4cnc5c(Nc6cnn(C)c6)cccn45)c3)cc(C(F)(F)F)c2)cn1` [Example 12, 4-methyl-N-(3-(4-methyl-1H-imidazol-1-yl)-5-(trifluoromethyl)phenyl)-3-((8-((1-methyl-1H-pyrazol-4-yl)amino)imidazo[1,2-a]pyridin-3-yl)ethynyl)benzamide], for which the remaining binding at 1 µM in test [1] is 79%; in test [2], 15%; in test [3] it was 24%; in [4] it was 3%; in [5], 100%; in test [6], 3%. Moreover, the remaining binding at 1 µM in test [7] came to 16%; in test [8], 88%; in test [9], 58%; in [10], 56%.
